Values quoted from earlier work, collected in patent US8377976B2, “N-hydroxyamidinoheterocycles as modulators of indoleamine 2,3-dioxygenase” (Incyte Corporation, priority 2006, dated 2013).

Tests used:
[1] = system: peripheral blood lymphocytes (PBLs); conditions: HeLa cells co-cultured with PBLs
allogeneic concepti = conditions: pregnant mice exposed to 1MT
tumor growth = conditions: mice
[2] = system: CD123-positive dendritic cells; conditions: mature and immature CD123-positive dendritic cells
LLC tumors = conditions: C57B1/6 mice, versus placebo
P815 tumor = conditions: pre-immunized immune-competent mice

## Cn1cc(C[C@H](N)C(=O)O)c2ccccc21 [Example 1-MT, 1-methyl-tryptophan]
[1]
  reduction in PBL proliferation upon treatment with interleukin-2 (IL2): reversed
Allogeneic concepti
  rejection of concepti: rapid, T cell-induced rejection of all allogeneic concepti
Tumor growth
  tumor growth in combination with chemotherapeutic agents: synergize with chemotherapeutic agents to reduce tumor growth
[2]
  IDO suppressive activity on T-cell activity: blocked
LLC tumors
  formation of tumors: markedly delayed
P815 tumor
  growth of tumors: inhibited
